Entries after “also recorded” stand apart in the source; their conditions may differ.
Assays:
[1] = system: Raw 264.7 murine macrophages; experiment: IFN-stimulated macrophages in PEGDA hydrogels, in vitro mimic of intra-articular injection; format: cell-based
Description: Referring now to FIG. 5A, an in vitro experiment was designed to mimic an intra-articular injection of potassium osmolytes consistent with the embodiments described above. Poly(ethylene glycol) diacrylate hydrogels encapsulated with proinflammatory interferon-gamma (IFN)-stimulated macrophages (M(IFN)s) were prepared. M(IFN)s were cultured for 5 days in the continued presence of IFN, with 80 mM K+ applied only during the first day and then removed. Other IA injection formulations—human mesenchymal stem cells (MSCs) and methylprednisolone acetate (MPA)—were also included to gain a sense of efficacy and benchmark against current OA treatments.
The PEGDA hydrogel (˜50 kPa stiffness) was provided at the bottom of the culture well to create a surface that more closely matches the stiffness of articular cartilage (aggregate modulus ˜500 kPa) than traditional plastic 2D surfaces (˜1×10^6 kPa). MSC behavior is known to respond to substrate stiffness. Assessments for treatment efficacy included cell lysate levels of several proinflammatory markers, anti-inflammatory markers, and the ratio between anti/proinflammatory profiles.
(§1) Raw 264.7 murine macrophages (a cell line) were thawed and expanded in regular growth medium: high-glucose Dulbecco's modified Eagle's medium (DMEM; Corning) supplemented with 10% fetal bovine serum (FBS; Hyclone, Atlanta Biologicals, Inc.). Primary human OACs (Cell Applications, Inc.) were expanded in chondrogenic growth media for four passages, transitioned into regular growth medium for 1 passage, and utilized at passage 5.
Aliquots ([…]; 1×10^6 cells per construct) of the cell/polymer suspension were dispensed into the wells of a 48-well plate (Corning) and cured by exposure to long-wave UV light (˜10 mW/cm^2) for 6 min. […]
Referring now to FIGS. 5B and 5C, relative protein production of proinflammatory and anti-inflammatory molecules and the ratio between anti/proinflammatory profiles in Raw 264.7 macrophages were determined after 5 days in culture. […]

Primary human OACs = experiment: Inflammatory protein production in osteoarthritic chondrocytes after short-term K+ treatment; format: cell-based
Source text: as §1
Referring now to FIGS. 5B and 5C, relative protein production of proinflammatory and anti-inflammatory molecules and the ratio between anti/proinflammatory profiles in Raw 264.7 macrophages were determined after 5 days in culture. “*” denotes a significant difference relative to IFN controls. “#” denotes a significant difference relative to 24-h 80 mM K^+ gluconate. “+” denotes a significant difference relative to 24-h MSCs.

Structure (SMILES): O=C([O-])[C@H](O)[C@@H](O)[C@H](O)[C@H](O)CO.[K+] [K+ gluconate, potassium gluconate]
- anti/proinflammatory cytokine ratio (relative protein production) ([1]; 80 mM K+ applied during the first day only, 5 days in culture in continued presence of IFN, relative to IFN controls): significantly enhanced
- macrophage polarization ([1]; 80 mM, M(IFN)s): toward an anti-inflammatory/proresolving phenotype
- anti/proinflammatory profile, 40 mM versus 80 mM treatment ([1]; comparison between 40 and 80-mM treatments): not significantly different
- IL-8 production (Primary human OACs): extended benefit
- MCP-1 production (Primary human OACs): extended benefit
- MMP-13 production (Primary human OACs; listed as K^+): extended benefit; also recorded: reduced production

— patent US20220347139A1, “METHOD OF TREATMENT VIA INTRA-ARTICULAR APPLICATION OF POTASSIUM” (Rensselaer Polytechnic Institute, priority 2018, published 2022)
